Test results as given in patent US8173808B2, “Substituted naphthalenyl-pyrimidine compounds” (ArQule, Inc., priority 2009, dated 2012).

How the values were obtained:
MDA-MB-231 = test: MTS assay, MDA-MB-231; assay type: cell-based; details: Homo sapiens, 72 hours, 1 Percent FBS
DLD-1 = test: MTS assay, DLD-1; assay type: cell-based; details: Homo sapiens, 72 hours, 1 Percent FBS

Question: How did the inhibition at 10 µM (MDA-MB-231) turn out when COc1ccc2cc(-c3ccnc(NC4CCN(C)CC4)n3)cc(N3CCNCC3)c2c1 [Compound 116, 4-(6-methoxy-4-piperazin-1-yl-2-naphthyl)-N-(1-methylpiperidin-4-yl)pyrimidin-2-amine] was run?
Answer: The inhibition at 10 µM was 97%.

Question: And the inhibition at 10 µM (DLD-1)?
Answer: The inhibition at 10 µM was 97%.

Question: Which inhibition at 10 µM (MDA-MB-231) does the source give for COc1ccc2cc(-c3ccnc(NC4CCN(Cc5ccccc5)CC4)n3)cc(N3CCNCC3)c2c1 [Compound 117, N-(1-benzylpiperidin-4-yl)-4-(6-methoxy-4-piperazin-1-yl-2-naphthyl)pyrimidin-2-amine] here?
Answer: Its inhibition at 10 µM is 97%.

Question: And the inhibition at 10 µM (DLD-1)?
Answer: The inhibition at 10 µM was 97%.

Question: How did the inhibition at 10 µM (MDA-MB-231) turn out when COc1ccc2cc(-c3ccnc(NC4CC(C)(C)N(C)C(C)(C)C4)n3)cc(N3CCNCC3)c2c1 [Compound 118, 4-(6-methoxy-4-piperazin-1-yl-2-naphthyl)-N-(l,2,2,6,6-pentamethylpiperidin-4-yl)pyrimidin-2-amine] was run?
Answer: The inhibition at 10 µM was 96%.

Question: And the inhibition at 10 µM (DLD-1)?
Answer: The inhibition at 10 µM was 96%.

Question: What does the source list for COCCNc1nccc(-c2cc(N3CCNCC3)c3cc(OC)ccc3c2)n1 [Compound 119, N-(2-methoxyethyl)-4-(6-methoxy-4-piperazin-1-yl-2-naphthyl)pyrimidin-2-amine]?
Answer: inhibition at 10 µM (MDA-MB-231): 93%; inhibition at 10 µM (DLD-1): 94%

Question: Which results are given for COc1ccc2cc(-c3ccnc(NCc4ccccn4)n3)cc(N3CCNCC3)c2c1 [Compound 120, 4-(6-methoxy-4-piperazin-1-yl-2-naphthyl)-N-(pyridin-2-ylmethyl)pyrimidin-2-amine]?
Answer: inhibition at 10 µM (MDA-MB-231): 78%; inhibition at 10 µM (DLD-1): 83%

Question: COc1ccc2cc(-c3ccnc(NCc4ccc(OC)c(OC)c4)n3)cc(N3CCNCC3)c2c1 [Compound 121, N-(3,4-dimethoxybenzyl)-4-(6-methoxy-4-piperazin-1-yl-2-naphthyl)pyrimidin-2-amine] was tested. Which inhibition at 10 µM (MDA-MB-231) did it give?
Answer: The inhibition at 10 µM was 99%.

Question: What about the inhibition at 10 µM (DLD-1) of the same compound?
Answer: The inhibition at 10 µM was 97%.

Question: What does the source list for COc1ccc2cc(-c3ccnc(NCCc4cccnc4)n3)cc(N3CCNCC3)c2c1 [Compound 122, 4-(6-methoxy-4-piperazin-1-yl-2-naphthyl)-N-(2-pyridin-3-ylethyl)pyrimidin-2-amine]?
Answer: inhibition at 10 µM (MDA-MB-231): 95%; inhibition at 10 µM (DLD-1): 94%

Question: What does the source list for COc1ccc2cc(-c3ccnc(NCCc4ccccn4)n3)cc(N3CCNCC3)c2c1 [Compound 123, 4-(6-methoxy-4-piperazin-1-yl-2-naphthyl)-N-(2-pyridin-2-ylethyl)pyrimidin-2-amine]?
Answer: inhibition at 10 µM (MDA-MB-231): 98%; inhibition at 10 µM (DLD-1): 97%

Question: Which results are given for COc1ccc2cc(-c3ccnc(NCCc4ccccc4OC)n3)cc(N3CCNCC3)c2c1 [Compound 124, N-[2-(2-methoxyphenyl)ethyl]-4-(6-methoxy-4-piperazin-1-yl-2-naphthyl)pyrimidin-2-amine]?
Answer: inhibition at 10 µM (MDA-MB-231): 98%; inhibition at 10 µM (DLD-1): 97%

Question: COc1ccc2cc(-c3ccnc(NCCN(C)C)n3)cc(N3CCNCC3)c2c1 [Compound 125, N′-[4-(6-methoxy-4-piperazin-1-yl-2-naphthyl)pyrimidin-2-yl]-N,N-dimethylethane-1,2-diamine] was tested. Which inhibition at 10 µM (MDA-MB-231) did it give?
Answer: The inhibition at 10 µM was 96%.

Question: And the inhibition at 10 µM (DLD-1)?
Answer: The inhibition at 10 µM was 96%.

Question: With COc1ccc2cc(-c3ccnc(NCc4cccc(C(F)(F)F)c4)n3)cc(N3CCNCC3)c2c1 [Compound 127, 4-(6-methoxy-4-piperazin-1-yl-2-naphthyl)-N-[3-(trifluoromethyl)benzyl] pyrimidin-2-amine] as the compound, how does the inhibition at 10 µM (MDA-MB-231) read?
Answer: The inhibition at 10 µM was 99%.

Question: And the inhibition at 10 µM (DLD-1)?
Answer: Its inhibition at 10 µM is 97%.

Question: Which results are given for COc1ccc2cc(-c3ccnc(NCc4ccccc4C)n3)cc(N3CCNCC3)c2c1 [Compound 128, 4-(6-methoxy-4-piperazin-1-yl-2-naphthyl)-N-(2-methylbenzyl)pyrimidin-2-amine]?
Answer: inhibition at 10 µM (MDA-MB-231): 98%; inhibition at 10 µM (DLD-1): 97%

Question: Which results are given for COc1ccc2cc(-c3ccnc(NCCc4cccc(OC)c4OC)n3)cc(N3CCNCC3)c2c1 [Compound 129, N-[2-(2,3-dimethoxyphenyl)ethyl]-4-(6-methoxy-4-piperazin-1-yl-2-naphthyl)pyrimidin-2-amine]?
Answer: inhibition at 10 µM (MDA-MB-231): 99%; inhibition at 10 µM (DLD-1): 97%

Question: Which inhibition at 10 µM (MDA-MB-231) does the source give for COc1ccc2cc(-c3ccnc(NCc4cccnc4)n3)cc(N3CCNCC3)c2c1 [Compound 130, 4-(6-methoxy-4-piperazin-1-yl-2-naphthyl)-N-(pyridin-3-ylmethyl)pyrimidin-2-amine] here?
Answer: Its inhibition at 10 µM is 76%.

Question: And the inhibition at 10 µM (DLD-1)?
Answer: Its inhibition at 10 µM is 97%.

Question: What does the source list for CCN1CCCC(Nc2nccc(-c3cc(N4CCNCC4)c4cc(OC)ccc4c3)n2)C1 (stereo not drawn) [Compound 131, N-(1-ethylpiperidin-3-yl)-4-(6-methoxy-4-piperazin-1-yl-2-naphthyl)pyrimidin-2-amine]?
Answer: inhibition at 10 µM (MDA-MB-231): 97%; inhibition at 10 µM (DLD-1): 92%

Question: For COc1cc(CCNc2nccc(-c3cc(N4CCNCC4)c4cc(OC)ccc4c3)n2)cc(OC)c1 [Compound 132, N-[2-(3,5-dimethoxyphenyl)ethyl]-4-(6-methoxy-4-piperazin-1-yl-2-naphthyl)pyrimidin-2-amine], which inhibition at 10 µM (MDA-MB-231) is on record?
Answer: Its inhibition at 10 µM is 98%.

Question: What about the inhibition at 10 µM (DLD-1) of the same compound?
Answer: Its inhibition at 10 µM is 97%.

Question: What does the source list for COc1ccc2cc(-c3ccnc(NCCN4CCCC4)n3)cc(N3CCNCC3)c2c1 [Compound 133, 4-(6-methoxy-4-piperazin-1-yl-2-naphthyl)-N-(2-pyrrolidin-1-ylethyl)pyrimidin-2-amine]?
Answer: inhibition at 10 µM (MDA-MB-231): 98%; inhibition at 10 µM (DLD-1): 97%

Question: COc1ccc(CCNc2nccc(-c3cc(N4CCNCC4)c4cc(OC)ccc4c3)n2)cc1 [Compound 134, N-[2-(4-methoxyphenyl)ethyl]-4-(6-methoxy-4-piperazin-1-yl-2-naphthyl)pyrimidin-2-amine] was tested. Which inhibition at 10 µM (MDA-MB-231) did it give?
Answer: The inhibition at 10 µM was 98%.

Question: What about the inhibition at 10 µM (DLD-1) of the same compound?
Answer: The inhibition at 10 µM was 97%.

Question: For COc1ccc2cc(-c3ccnc(NCC(C)(C)CN(C)C)n3)cc(N3CCNCC3)c2c1 [Compound 136, N′-[4-(6-methoxy-4-piperazin-1-yl-2-naphthyl)pyrimidin-2-yl]-N,N,2,2-tetramethylpropane-1,3-diamine], which inhibition at 10 µM (MDA-MB-231) is on record?
Answer: The inhibition at 10 µM was 95%.

Question: What about the inhibition at 10 µM (DLD-1) of the same compound?
Answer: The inhibition at 10 µM was 97%.

Question: CNc1nccc(-c2cc(NC3CCN(c4ccc5ccccc5n4)CC3)c3cc(OC)ccc3c2)n1 [Compound 154, 4-{6-methoxy-4-[(1-quinolin-2-ylpiperidin-4-yl)amino]-2-naphthyl}-N-methylpyrimidin-2-amine] was tested. Which inhibition at 10 µM (MDA-MB-231) did it give?
Answer: The inhibition at 10 µM was 41%.

Question: And the inhibition at 10 µM (DLD-1)?
Answer: The inhibition at 10 µM was 82%.

Question: CNc1nccc(-c2cc(NC3CCN(c4ncnc5nc[nH]c45)CC3)c3cc(OC)ccc3c2)n1 [Compound 157, 4-(6-methoxy-4-{[1-(9H-purin-6-yl)piperidin-4-yl]amino}-2-naphthyl)-N-methylpyrimidin-2-amine] was tested. Which inhibition at 10 µM (MDA-MB-231) did it give?
Answer: Its inhibition at 10 µM is 75%.

Question: And the inhibition at 10 µM (DLD-1)?
Answer: Its inhibition at 10 µM is 46%.

Question: Which inhibition at 10 µM (MDA-MB-231) does the source give for CNc1nccc(-c2cc(NC3CCN(c4cc(C(=N)N)cc(Cl)n4)CC3)c3cc(OC)ccc3c2)n1 [Compound 158, 2-chloro-6-[4-({7-methoxy-3-[2-(methylamino)pyrimidin-4-yl]-1-naphthyl}amino)piperidin-1-yl]pyridine-4-carboximidamide] here?
Answer: Its inhibition at 10 µM is 98%.

Question: And the inhibition at 10 µM (DLD-1)?
Answer: The inhibition at 10 µM was 98%.

Question: With CNc1nccc(-c2cc(NC3CCN(c4cc(Cl)ncn4)CC3)c3cc(OC)ccc3c2)n1 [Compound 159, 4-(4-{[1-(6-chloropyrimidin-4-yl)piperidin-4-yl]amino}-6-methoxy-2-naphthyl)-N-methylpyrimidin-2-amine] as the compound, how does the inhibition at 10 µM (MDA-MB-231) read?
Answer: The inhibition at 10 µM was 42%.

Question: What about the inhibition at 10 µM (DLD-1) of the same compound?
Answer: The inhibition at 10 µM was 93%.

Question: Which inhibition at 10 µM (MDA-MB-231) does the source give for CNc1nccc(-c2cc(NC3CCN(c4nc(C)cc(C(=O)OC)n4)CC3)c3cc(OC)ccc3c2)n1 [Compound 163, methyl 2-[4-({7-methoxy-3-[2-(methylamino)pyrimidin-4-yl]-1-naphthyl}amino)piperidin-1-yl]-6-methylpyrimidine-4-carboxylate] here?
Answer: Its inhibition at 10 µM is 98%.

Question: What about the inhibition at 10 µM (DLD-1) of the same compound?
Answer: The inhibition at 10 µM was 97%.
